Measured values reported in US20190062671A1, “PERFUME COMPOSITIONS” (Givaudan SA, priority 2016, published 2019).
Entries after “also recorded” stand apart in the source; their conditions may differ.

How the values were obtained:
[1] = system: Nrf2-dependent luciferase (ARE-element of the gene AKR1C2) in KeratinoSens cell line; test: KeratinoSens assay, luciferase gene induction (OECD TG 442d); settings: single chemicals; for Rating in the KeratinoSens assay (skin sensitization): threshold 1.5-fold induction
Experimental: The level of skin sensitization can reliably and quantitatively be measured experimentally by the KeratinoSens® method, which measures the induction of Nrf2-dependent luciferase in a skin cell line.
(§1) Compounds were tested using the commercial KeratinoSens® assay for skin sensitization. The KeratinoSens® test compares the potential skin sensitization risk of chemicals. […] KeratinoSens® cells were grown for 24 h in 96-well plates. The medium was then replaced with medium containing the test chemical and the solvent dimethylsulfoxide (DMSO) at a final level of 1% (v/v). Each compound was tested at 12 binary dilutions in the range from 0.98 to 2000 μM. Cells were incubated for 48 h with the test agents, and then luciferase activity and cytotoxicity were determined. This full procedure was repeated three times for each chemical. For each chemical in each repetition and at each concentration, the gene induction compared to DMSO controls and the wells with statistically significant induction over the threshold of 1.5 (i.e. 50% enhanced gene activity) were determined. Furthermore, the maximal fold-induction (Imax) and the EC1.5 value (concentration in μM for induction above the threshold) were calculated.
(§2) All compositions were tested in the concentration range from 0.2-400 ppm (parts per million in weights per volume).

[2] = system: KeratinoSens cells; test: Cytotoxicity / cellular viability in the KeratinoSens assay; assay type: cell-based; settings: single chemicals, 48 h
Experimental: as §1, §2

[3] = target: test peptide Cor1C-420 (Ac-NKKCDLF) (Homo sapiens, UniProt Q9ULV4, I423F); test: Modified direct peptide reactivity assay with LC-MS detection of peptide adducts; settings: for Peptide reactivity: quantification, % of parent peptide modified: pH 7.5
Experimental: Alternatively, the sensitization potential can be quantified by measuring the reactivity of test chemicals with peptides.
It is based on the fact that allergenic chemicals must react with a peptide/protein in order to be immunogenic.
The samples were incubated for 24 h at 37° C. and analysed by LC-MS analysis on a VELOS PRO Mass spectrometer (Thermo […], San Jose, Calif., U.S.A.) operated in the ESI(+) mode.
Mass spectra were recorded from 200-2000 amu. A ZORBAX Eclipse XDB-C18 column, 2.1 mm ID, 150 mm, 5-Micron (Agilent Technologies) was used. The mobile phase consisted of H2O (A) and methanol (B) each containing 0.1% formic acid (v/v). The solvent flow was 250 μl/min and the following gradient (ratio A:B) was used: 0 min, 95:5; 2 min, 40:60; 10 min, 2:98; 12 min, 2:98. The integration was performed with Xcalibur Quan Browser™.
In order to detect formation of modified peptides, the specific ion trace for a new adduct with the mass of the test chemical added to the test peptide is extracted, and the peak of the peptide-adduct is integrated. Peptide adduct formation is a particular sensitive endpoint to determine reactive, and thus allergenic nature of compounds.

[4] = 1 mM test chemical, 0.1 mM peptide, 24 h at 37° C.

CC(C)=CCC(C)/C=C(\C)C=O (centres unmarked) [2,4,7-trimethyl-2,6,-octadienal]
Imax (fold maximal gene induction) ([1]; 0.98 to 2000 μM, 48 h): 1.40 fold
Concentration for 1.5-fold gene induction (EC 1.5 in μM) ([1]; 48 h, n.i. = no induction above threshold of 1.5 (negative rating)): n.i.
Rating in the KeratinoSens assay (skin sensitization) [1]: non-sensitizing; also recorded: does not surpass the threshold for a positive rating up to the top dose
Concentration for 50% Cytotoxicity [2]: 317.8 µM
Peptide reactivity: adduct observation [3, 4]: only traces were formed
Peptide reactivity: quantification, % of parent peptide modified [3, 4]: observed, 0.3% of parent
Peptide reactivity: adduct observation ([3]; 1 mM test chemical, 0.1 mM peptide, 24 h at 37° C., listed as II): Extremely low activity,
Peptide reactivity / adduct amount, fold lower as compared to Citral ([3]; relative to Citral): 27 fold

CC(C)=CCCC(C)=CC=O [Citral, 3,7-dimethyl-2,6-octadienal, reference compound]
Rating in the KeratinoSens assay (skin sensitization) [1]: highly active
Concentration for 50% Cytotoxicity [2]: 95.5 µM
Peptide reactivity: quantification, % of parent peptide modified ([3]; 24 h, 1 mM): 8.1% of parent
